No end group written: not given here. *: point of attachment. BODIPYFLEthylmaleimide = Cc1cc(C)n2c1C=C1C=CC(CCC(=O)NCCN3C(=O)CC(*)C3=O)=[N+]1[B-]2(F)F
Experiments:
[1] = test system: Ndc80c^dwarf Nuf2 F8A P9A; assay: Fluorescence polarization direct binding to Ndc80c^dwarf bearing Nuf2 F8A P9A; parameters: species or system S. cerevisiae; settings: Ndc80c^dwarf Nuf2 F8A P9A relative to wild-type Ndc80c^dwarf; Figure 3D
Experimental: (§1) Figure 3. Fluorescence polarization measurements of Ndc80c^dwarf binding peptides from the N-terminal extensions of Mps1 and Ipl1. (A) Polarization of fluorescence from 20 nM Bodipy-FL Mps1(137–171) (Mps1 residues 137–171 plus a C-terminal cysteine modified with Bodipy-FL -- see Methods) and Bodipy-FL Ipl1 (26–39;45–59) as a function of Ndc80c^dwarf concentration. (B) Competition binding experiment: unlabeled competitor peptides (see figure annotation) were added in twofold serial dilutions to Bodipy-FL Mps1(137–171) and Ndc80c^dwarf at final concentrations of 20 nM and 500 nM respectively. Loss of polarization indicates displacement of bound Bodipy-FL Mps1(137–171) by the competitor. (C) As in (B), with competitor Mps1(137–171) peptides containing mutations that reduce affinity for Ndc80c[40]. (D) Polarization of fluorescence from 20 nM Bodipy-FL Mps1(137–171) as a function of the concentration of Ndc80c^dwarf bearing mutations in Nuf2 that interfere with its Mps1 interaction in cells. […] For the Ipl1 peptide, the second copy of the motif, not used for the fluorescence polarization experiments, is shown in the bottom line.
(§2) We also determined the binding of the Mps1 peptide with two Ndc80c^dwarf constructs bearing mutations characterized in the other accompanying paper -- N128A and F8A P9A[48]. […]

Ndc80c^dwarf Nuf2 N128A = assay: Fluorescence polarization direct binding to Ndc80c^dwarf bearing Nuf2 N128A; parameters: species or system S. cerevisiae; settings: Ndc80c^dwarf Nuf2 N128A relative to wild-type Ndc80c^dwarf; Figure 3D
Chain of Ndc80c^dwarf Nuf2 N128A (P40460 115-315 limits assumed): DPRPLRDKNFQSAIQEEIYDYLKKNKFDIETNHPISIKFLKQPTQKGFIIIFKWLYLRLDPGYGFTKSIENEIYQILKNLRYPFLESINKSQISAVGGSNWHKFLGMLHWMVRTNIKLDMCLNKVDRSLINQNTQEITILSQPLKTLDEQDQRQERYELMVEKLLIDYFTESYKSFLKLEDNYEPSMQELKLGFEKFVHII
Chain of Ndc80c^dwarf Nuf2 N128A (P33895 1-158 N128A limits assumed, further chain): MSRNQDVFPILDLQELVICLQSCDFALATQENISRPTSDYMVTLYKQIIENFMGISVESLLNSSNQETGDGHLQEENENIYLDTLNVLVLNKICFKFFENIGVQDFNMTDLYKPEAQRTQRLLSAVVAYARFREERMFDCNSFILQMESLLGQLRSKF
Experimental: as §1, §2

Ndc80c^dwarf = assay: Pulldown of GST-fusions of Mps1 segments by Ndc80c^dwarf immobilized on Ni-NTA agarose; type: binding, S. cerevisiae; settings: 6-His Ndc80c^dwarf on Ni-NTA agarose, 30 min incubation, SDS-PAGE read-out; Figure 1B lane 12
Description: The long, N-terminal extension (residues 1–430) of yeast Mps1 has no immediately evident homology with sequences in metazoan Mps1 shown to interact with Ndc80c. […] We examined conservation among the yeast orthologs by iterative searches with the program Jackhmmer[50]. Using the N-terminal 430 residues of S. cerevisiae Mps1 as query, we identified five segments conserved among point-centromere yeasts (Figure 1A). We carried out a set of pulldown experiments, expressing them as GST-fusions and incubating them with the “dwarf” Ndc80c construct (Ndc80c^dwarf)[51] immobilized on Ni-NTA agarose (Figure 1B). In this format, we expected avidity from GST dimerization and multivalent display of Ndc80c to enhance the assay sensitivity. Ndc80c captured only the GST fusion of a peptide containing residues 151–171 (Figure 1B, lane 12), which include the most conserved region with a consensus sequence (151)RRxRRF(I/L/F)(3–4x)RxxxLGPAxR(170)(Figure 1C). Lysine appears occasionally in place of arginine, except for the invariant R at the end of the motif. […]
Figure 1. […] The bar graph above the N-terminal domain represents conservation determined by iterative searches with Jackhmmer[50] and shown as “information content”, defined in ref[68]. […]

Chain of Ndc80c^dwarf (P33895 1-150): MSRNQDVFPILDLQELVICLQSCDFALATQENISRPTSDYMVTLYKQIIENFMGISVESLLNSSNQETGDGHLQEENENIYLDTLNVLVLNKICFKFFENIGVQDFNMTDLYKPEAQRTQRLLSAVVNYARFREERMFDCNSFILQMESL
Chain of Ndc80c^dwarf (P40460 115-310, further chain): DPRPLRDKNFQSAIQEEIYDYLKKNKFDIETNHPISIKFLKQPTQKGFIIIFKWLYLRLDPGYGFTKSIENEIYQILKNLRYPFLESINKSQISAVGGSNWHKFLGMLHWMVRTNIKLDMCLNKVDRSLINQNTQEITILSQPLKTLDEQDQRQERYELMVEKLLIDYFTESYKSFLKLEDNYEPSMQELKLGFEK
Chain of Ndc80c^dwarf Nuf2 F8A P9A (P40460 115-335 limits assumed): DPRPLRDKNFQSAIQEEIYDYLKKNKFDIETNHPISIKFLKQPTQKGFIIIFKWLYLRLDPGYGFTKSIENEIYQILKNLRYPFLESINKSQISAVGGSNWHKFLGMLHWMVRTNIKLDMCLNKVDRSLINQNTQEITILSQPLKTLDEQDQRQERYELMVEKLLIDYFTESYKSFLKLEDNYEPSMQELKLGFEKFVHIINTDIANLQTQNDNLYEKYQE
Chain of Ndc80c^dwarf Nuf2 F8A P9A (P33895 1-173 F8A/P9A limits assumed, further chain): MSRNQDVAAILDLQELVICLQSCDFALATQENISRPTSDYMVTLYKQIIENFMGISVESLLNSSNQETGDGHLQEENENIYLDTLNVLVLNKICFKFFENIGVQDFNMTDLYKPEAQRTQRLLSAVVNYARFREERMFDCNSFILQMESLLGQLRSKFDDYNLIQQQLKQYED

Substance | affinity weaker than for the wild-type protein [1] | affinity weaker than for the wild-type protein (Ndc80c^dwarf Nuf2 N128A) | capture of GST fusion by immobilized Ndc80c^dwarf (Ndc80c^dwarf)
Bodipy-FL Mps1(137–171): Mps1 residues 137–171 plus a C-terminal cysteine modified with Bodipy-FL (RQNMKEDITAKYAERRSKRFLISNRTTKLGPAKRAC(BODIPYFLEthylmaleimide)) | about 2 logs | about 2 logs | 
GST fusion of a peptide containing residues 151–171: GST-fusion of Mps1 residues 151–171 expressed from pGEX-6P1 (GSGGSGGSGGSGGSERRSKRFLISNRTTKLGPAKR; also: GST fusion, end not given here) |  |  | captured

— paper PMC11847324, “A communication hub for phosphoregulation of kinetochore-microtubule attachment” (Current biology : CB, 2024)
